{"source": "patent US11572341B2", "about": "“Biguanide compound and use thereof” (ImmunoMet Therapeutics Inc., priority 2014, dated 2023)", "key": {"HCT116 cells": {"tested_on": "HCT116 cells", "experiment": "Inhibitory effect against cancer cell proliferation (MTT)", "type": "cell-based, human", "details": "Homo sapiens, read-out: IC50 (uM) @ HCT116", "method": "The formazane crystals thus formed were dissolved using dimethyl sulfoxide (DMSO) and absorbance of the solution was measured at 560 nm. After culturing for 48 hours, […] synthesized in Examples was indicated as cell viability (%) according to each treated concentration."}, "AMPKa [pT172]": {"tested_on": "AMPKa [pT172]", "experiment": "AMPKa activation [pT172] in MCF7 cell", "type": "cell-based"}}, "note": "Structures can show the parent of a compound that is named as a salt. Where two headings read alike, the source gives them in different places.", "data": [{"smiles": "CC(=O)Nc1ccc(NC(=N)NC(=N)N)cc1.Cl", "note": "[Example 125, N1-4-(N-acetylamino)phenyl Biguanide Hydrochloride]", "values": [{"measurement": "IC50", "setting": "HCT116 cells; HCT-116, HCT116, MTT, 48 hours", "result": "> 100", "unit": "µM"}, {"measurement": "AMPKa activation [pT172] (Unit/ml) @ MCF7 cell", "setting": "AMPKa [pT172]; 50 uM", "result": 5.0, "unit": "Unit/ml"}]}, {"smiles": "Cl.N=C(N)NC(=N)N1CCCC1", "note": "[Example 126, N1-pyrrolidine Biguanide Hydrochloride]", "values": [{"measurement": "IC50", "setting": "HCT116 cells; HCT-116, HCT116, MTT, 48 hours", "result": "> 100", "unit": "µM"}, {"measurement": "AMPKa activation [pT172] (Unit/ml) @ MCF7 cell", "setting": "AMPKa [pT172]; 5 uM", "result": 6.1, "unit": "Unit/ml"}, {"measurement": "AMPKa activation [pT172] (Unit/ml) @ MCF7 cell", "setting": "AMPKa [pT172]; 10 uM", "result": 6.4, "unit": "Unit/ml"}, {"measurement": "AMPKa activation [pT172] (Unit/ml) @ MCF7 cell", "setting": "AMPKa [pT172]; 50 uM", "result": 10.7, "unit": "Unit/ml"}]}, {"smiles": "Cl.N=C(N)NC(=N)Nc1ccc(C(F)(F)F)cc1", "note": "[Example 128, N1-(4-trifluoromethyl)phenyl Biguanide Hydrochloride]", "values": [{"measurement": "IC50", "setting": "HCT116 cells; HCT-116, HCT116, MTT, 48 hours", "result": "> 100", "unit": "µM"}, {"measurement": "AMPKa activation [pT172] (Unit/ml) @ MCF7 cell", "setting": "AMPKa [pT172]; 5 uM", "result": 7.6, "unit": "Unit/ml"}, {"measurement": "AMPKa activation [pT172] (Unit/ml) @ MCF7 cell", "setting": "AMPKa [pT172]; 10 uM", "result": 7.1, "unit": "Unit/ml"}, {"measurement": "AMPKa activation [pT172] (Unit/ml) @ MCF7 cell", "setting": "AMPKa [pT172]; 50 uM", "result": 8.8, "unit": "Unit/ml"}]}, {"smiles": "Cl.N=C(N)NC(=N)NCc1ccc(Cl)cc1", "note": "[Example 129, N1-(4-chloro)benzyl Biguanide Hydrochloride]", "values": [{"measurement": "IC50", "setting": "HCT116 cells; HCT-116, HCT116, MTT, 48 hours", "result": "> 100", "unit": "µM"}, {"measurement": "AMPKa activation [pT172] (Unit/ml) @ MCF7 cell", "setting": "AMPKa [pT172]; 5 uM", "result": 9.2, "unit": "Unit/ml"}, {"measurement": "AMPKa activation [pT172] (Unit/ml) @ MCF7 cell", "setting": "AMPKa [pT172]; 10 uM", "result": 7.0, "unit": "Unit/ml"}, {"measurement": "AMPKa activation [pT172] (Unit/ml) @ MCF7 cell", "setting": "AMPKa [pT172]; 50 uM", "result": 11.4, "unit": "Unit/ml"}]}, {"smiles": "Cl.N=C(N)NC(=N)N(Cc1ccccc1)Cc1ccccc1", "note": "[Example 130, N1,N1-dibenzyl Biguanide Hydrochloride]", "values": [{"measurement": "IC50", "setting": "HCT116 cells; HCT-116, HCT116, MTT, 48 hours", "result": "> 100", "unit": "µM"}, {"measurement": "AMPKa activation [pT172] (Unit/ml) @ MCF7 cell", "setting": "AMPKa [pT172]; 50 uM", "result": 8.8, "unit": "Unit/ml"}]}, {"smiles": "COc1ccc(CNC(=N)NC(=N)N)cc1", "note": "[Example 131, N1-(4-methoxy)benzyl Biguanide Hydrochloride]", "values": [{"measurement": "IC50", "setting": "HCT116 cells; HCT-116, 48 h", "result": "> 100", "unit": "µM"}, {"measurement": "AMPKa activation [pT172] (Unit/ml) @ MCF7 cell", "setting": "AMPKa [pT172]; 50 uM", "result": 17.6, "unit": "Unit/ml"}]}, {"smiles": "CCCCCCN(CCCCCC)C(=N)NC(=N)N.Cl", "note": "[Example 133, N1,N1-dihexyl Biguanide Hydrochloride]", "values": [{"measurement": "IC50", "setting": "HCT116 cells; HCT-116, HCT116, MTT, 48 hours", "result": "> 100", "unit": "µM"}, {"measurement": "AMPKa activation [pT172] (Unit/ml) @ MCF7 cell", "setting": "AMPKa [pT172]; 50 uM", "result": 7.1, "unit": "Unit/ml"}]}, {"smiles": "CCCCN(C)C(=N)NC(=N)N.Cl", "note": "[Example 134, N1-methyl-N1-butyl Biguanide Hydrochloride]", "values": [{"measurement": "IC50", "setting": "HCT116 cells; HCT-116, HCT116, MTT, 48 hours", "result": "> 100", "unit": "µM"}, {"measurement": "AMPKa activation [pT172] (Unit/ml) @ MCF7 cell", "setting": "AMPKa [pT172]; 50 uM", "result": 16.2, "unit": "Unit/ml"}]}, {"smiles": "CN(C(=N)NC(=N)N)C1CCCCC1.Cl", "note": "[Example 135, N1-methyl-N1-cyclohexyl Biguanide Hydrochloride]", "values": [{"measurement": "IC50", "setting": "HCT116 cells; HCT-116, HCT116, MTT, 48 hours", "result": "> 100", "unit": "µM"}, {"measurement": "AMPKa activation [pT172] (Unit/ml) @ MCF7 cell", "setting": "AMPKa [pT172]; 50 uM", "result": 4.2, "unit": "Unit/ml"}]}, {"smiles": "Cl.N=C(N)NC(=N)N(C1CCCCC1)C1CCCCC1", "note": "[Example 136, N1,N1-dicyclohexyl Biguanide Hydrochloride]", "values": [{"measurement": "IC50", "setting": "HCT116 cells; HCT-116, HCT116, MTT, 48 hours", "result": "> 100", "unit": "µM"}, {"measurement": "AMPKa activation [pT172] (Unit/ml) @ MCF7 cell", "setting": "AMPKa [pT172]; 50 uM", "result": 5.9, "unit": "Unit/ml"}]}, {"smiles": "Cl.N=C(N)NC(=N)NCCc1ccc(Cl)cc1", "note": "[Example 137, N1-(4-chloro)phenethyl Biguanide Hydrochloride]", "values": [{"measurement": "IC50", "setting": "HCT116 cells; HCT-116, HCT116, MTT, 48 hours", "result": "> 100", "unit": "µM"}, {"measurement": "AMPKa activation [pT172] (Unit/ml) @ MCF7 cell", "setting": "AMPKa [pT172]; 5 uM", "result": 4.1, "unit": "Unit/ml"}, {"measurement": "AMPKa activation [pT172] (Unit/ml) @ MCF7 cell", "setting": "AMPKa [pT172]; 10 uM", "result": 7.3, "unit": "Unit/ml"}, {"measurement": "AMPKa activation [pT172] (Unit/ml) @ MCF7 cell", "setting": "AMPKa [pT172]; 50 uM", "result": 11.9, "unit": "Unit/ml"}]}, {"smiles": "Cl.N=C(N)NC(=N)NCCc1ccc(O)cc1", "note": "[Example 138, N1-(4-hydroxy)phenethyl Biguanide Hydrochloride]", "values": [{"measurement": "IC50", "setting": "HCT116 cells; HCT-116, HCT116, MTT, 48 hours", "result": "> 100", "unit": "µM"}, {"measurement": "AMPKa activation [pT172] (Unit/ml) @ MCF7 cell", "setting": "AMPKa [pT172]; 5 uM", "result": 3.7, "unit": "Unit/ml"}, {"measurement": "AMPKa activation [pT172] (Unit/ml) @ MCF7 cell", "setting": "AMPKa [pT172]; 10 uM", "result": 3.7, "unit": "Unit/ml"}, {"measurement": "AMPKa activation [pT172] (Unit/ml) @ MCF7 cell", "setting": "AMPKa [pT172]; 50 uM", "result": 4.2, "unit": "Unit/ml"}]}, {"smiles": "Cl.N=C(N)NC(=N)N1CCCCCC1", "note": "[Example 139, N1-azepane Biguanide Hydrochloride]", "values": [{"measurement": "IC50", "setting": "HCT116 cells; HCT-116, HCT116, MTT, 48 hours", "result": "> 100", "unit": "µM"}, {"measurement": "AMPKa activation [pT172] (Unit/ml) @ MCF7 cell", "setting": "AMPKa [pT172]; 5 uM", "result": 5.7, "unit": "Unit/ml"}, {"measurement": "AMPKa activation [pT172] (Unit/ml) @ MCF7 cell", "setting": "AMPKa [pT172]; 10 uM", "result": 5.8, "unit": "Unit/ml"}, {"measurement": "AMPKa activation [pT172] (Unit/ml) @ MCF7 cell", "setting": "AMPKa [pT172]; 50 uM", "result": 10.9, "unit": "Unit/ml"}]}, {"smiles": "Cl.N=C(N)NC(=N)NCc1ccc(C(F)(F)F)cc1", "note": "[Example 141, N1-(4-trifluoromethyl)benzyl Biguanide Hydrochloride]", "values": [{"measurement": "IC50", "setting": "HCT116 cells; HCT-116, HCT116, MTT, 48 hours", "result": "> 100", "unit": "µM"}, {"measurement": "AMPKa activation [pT172] (Unit/ml) @ MCF7 cell", "setting": "AMPKa [pT172]; 5 uM", "result": 5.6, "unit": "Unit/ml"}, {"measurement": "AMPKa activation [pT172] (Unit/ml) @ MCF7 cell", "setting": "AMPKa [pT172]; 10 uM", "result": 6.1, "unit": "Unit/ml"}, {"measurement": "AMPKa activation [pT172] (Unit/ml) @ MCF7 cell", "setting": "AMPKa [pT172]; 50 uM", "result": 10.3, "unit": "Unit/ml"}]}]}
